These results are taken from US20030185878A1, “Process for producing phospholipid-containing drug” (priority 2002, published 2003).

A word on the melting point: it is the temperature of the solid-liquid transition.

`Cn1ncc2c1-c1c(Oc3ccc(OC(F)(F)F)cc3)sc(C(N)=O)c1CC2` [compound 7, 4,5-Dihydro-1-methyl-8-(4-trifluoromethoxyphenoxy)-1H-thieno[3,4-g]indazole-6-carboxamide] registered a melting point of 212 to 213 °C.

Take `Cn1ncc2c1-c1c(Oc3ccc(OCc4ccccc4)cc3)sc(C(N)=O)c1CC2` [compound 5, 8-(4-Benzyloxyphenoxy)-4,5-dihydro-1-methyl-1H-thieno[3,4-g]indazole-6-carboxamide]: the melting point is 200 to 201 °C. Take `Cn1ncc2c1-c1c(Oc3ccc(F)cc3)sc(C(N)=O)c1CC2` [compound 15, 4,5-Dihydro-1-methyl-8-(4-fluorophenoxy)-1H-thieno[3,4-g]indazole-6-carboxamide]: the melting point is 188 to 189 °C.

For the compound `COc1ccc(Oc2sc(C(N)=O)c3c2-c2c(cnn2C)CC3)cc1` [compound 6, 4,5-Dihydro-1-methyl-8-(4-methoxyphenoxy)-1H-thieno[3,4-g]indazole-6-carboxamide], the melting point was 203 to 205 °C. Next, `Cn1ncc2c1-c1c(Oc3ccc4c(c3)OCO4)sc(C(N)=O)c1CC2` [Reference Example 4, 4,5-Dihydro-1-methyl-8-(3,4-methylenedioxyphenoxy)-1H-thieno[3,4-g]indazole-6-carboxamide]: 204 to 205 °C.

On to `Cc1cccc(Oc2sc(C(N)=O)c3c2-c2c(cnn2CC(F)(F)F)CC3)c1C` [compound 9, 4,5-Dihydro-8-(2,3-dimethylphenoxy)-1-(2,2,2-trifluoroethyl)-1H-thieno[3,4-g]indazole-6-carboxamide], for which the melting point was in the range of 190 to 191 °C. The result for `Cn1ncc2c1-c1c(Oc3ccc(OCc4ccncc4)cc3)sc(C(N)=O)c1CC2` [compound 14, 4,5-Dihydro-1-methyl-8-[4-(4-pyridylmethyloxy)phenoxy]-1H-thieno[3,4-g]indazole-6-carboxamide] reads 249 to 250 °C.
